The results in this text go back to ChEMBL document CHEMBL1201862, “PubChem BioAssay data set” (2004).

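Exposure lasted 48 hours, with cells grown in 96-well plates and compounds tested at five concentrations. The concentration for 50% growth inhibition is given as GI50.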 The source made the active and inactive calls. Cut-off read from the data, not from the text of the source: active = GI50 up to about 1.1 µM and inactive = higher. Some results are limits rather than exact numbers.

What all share (assay): growth of human tumour cells (NCI), 48 h
The subject of test [1] is KM12.
Test [2] concerns SF-268.
Test [3] deals with K562.
For test [4], the system named is M14.
For test [5], the system named is NCI/ADR-RES.
For test [6], the system named is NCI-H23.
In test [7] the test system is SK-MEL-28.
The subject of test [8] is SN12C.
Test [9] concerns COLO 205.
Test [10] has as its system IGROV-1.
The test system of test [11] is CCRF-CEM.
Test [12] concerns HOP-92.
The subject of test [13] is A549.
For test [14], the system named is MOLT-4.
The test system of test [15] is RPMI-8226.
Test [16] relates to OVCAR-3.
Test [17] relates to UACC-257.
The test system of test [18] is OVCAR-5.
The test system of test [19] is NCI-H226.
Test [20] relates to HOP-62.

Take `CCNC1=C(NC(=O)c2ccc(F)cc2)C(=O)c2ccccc2C1=O`: the GI50 was 49.9 µM (inactive) in test [1]; > 100 µM (inactive) in [2]; 65.8 µM (inactive) in test [3]; 24.5 µM (inactive) in test [4]; 27.3 µM (inactive) in test [5]; 34.6 µM (inactive) in test [6]. For the same compound, the GI50 in [7] was > 100 µM (inactive); in [8], 38.7 µM (inactive); in [9], 26.7 µM (inactive); in test [10], 31.6 µM (inactive); in [11], 35.8 µM (inactive); in [12], > 100 µM (inactive). The GI50 in test [13] is 70.8 µM (inactive); in test [14] it was 30.1 µM (inactive); in test [15], > 100 µM (inactive); in test [16], 36.6 µM (inactive); in test [17], 15.8 µM (inactive); in test [18], > 100 µM (inactive). Further, the GI50 in test [19] and in test [20] was > 100 µM (inactive) each time.

As to `CC(NC1=NCCO1)c1cccc([N+](=O)[O-])c1` (stereo not given), the GI50 in [1], in [2], in test [3], in test [4], in [5] and in test [6] was > 100 µM (inactive) in each case. For the same compound, the GI50 in test [7] is > 100 µM (inactive); in [8], > 100 µM (inactive); in [9], > 100 µM (inactive); in test [10], > 100 µM (inactive); in test [11] it was > 100 µM (inactive); in [12], 30 µM (inactive). Also, the GI50 in test [13] is > 100 µM (inactive); in test [14], 88.7 µM (inactive); in test [15], > 100 µM (inactive); in test [16] it was > 100 µM (inactive); in test [17], > 100 µM (inactive); in test [18], > 100 µM (inactive). Also, the GI50 in test [19] and in [20] was > 100 µM (inactive) each time.

As for `NC(=O)N/N=C(/CC1C(=O)Oc2ccccc21)c1ccccc1O` (stereo not given), the GI50 in [1] was 31.9 µM (inactive); in [2], > 100 µM (inactive); in test [3], 30.8 µM (inactive); in test [4], > 100 µM (inactive); in test [5] it was 25.9 µM (inactive); in test [6], 31.5 µM (inactive). The GI50 in test [7] is 48.3 µM (inactive); in test [8], 83.6 µM (inactive); in test [9] it was 98.2 µM (inactive); in [10] it was 36.6 µM (inactive); in [11] it was 22.4 µM (inactive); in test [12], 29.8 µM (inactive). The GI50 was > 100 µM (inactive) in [13]; 20.2 µM (inactive) in test [14]; 14.1 µM (inactive) in test [15]; 78.2 µM (inactive) in [16]; 44.7 µM (inactive) in test [17]; > 100 µM (inactive) in test [18]. The GI50 in test [19] is 24.4 µM (inactive); in test [20], 29 µM (inactive).

For the compound `O=C(O)c1ccc(NC(c2ccccc2)c2ccc3cccnc3c2O)cc1` (stereo not given), the GI50 was 5.14 µM (inactive) in test [1]; 7.1 µM (inactive) in test [2]; 3.56 µM (inactive) in test [3]; 6.19 µM (inactive) in test [4]; 3.5 µM (inactive) in test [5]; 14.7 µM (inactive) in [6]. For the same compound, the GI50 in test [7] is 11.2 µM (inactive); in [8], 6.87 µM (inactive); in test [9], 9.84 µM (inactive); in [10], 16.5 µM (inactive); in [11], 1.72 µM (inactive); in [12], 20.2 µM (inactive). The GI50 in test [13] was 5.94 µM (inactive); in [14], 3.56 µM (inactive); in [15] it was 4.38 µM (inactive); in test [16], 2.99 µM (inactive); in [17], 11.1 µM (inactive); in [18] it was 16.8 µM (inactive). Also, the GI50 is 3.88 µM (inactive) in test [19] and 6.15 µM (inactive) in test [20].

Regarding `CCCCCCCCCC[C@H](O)[C@H]1CC[C@@H]([C@@H](O)CC[C@H](O)[C@@H]2CCC(CCCCCCC[C@@H](O)CC3=C[C@H](C)OC3=O)O2)O1` (stereo not given in full), the GI50 is 1.53 µM (inactive) in [1]; 1.85 µM (inactive) in test [2]; 1.37 µM (inactive) in test [3]; 1.5 µM (inactive) in test [4]; 1.34 µM (inactive) in test [5]; 1.31 µM (inactive) in test [6]. Also, the GI50 in test [7] was 1.93 µM (inactive); in [8], 2.94 µM (inactive); in test [9], 2.37 µM (inactive); in [10] it was 1.78 µM (inactive); in test [11] it was 1.11 µM (active); in test [12], 1.02 µM (active). Further, the GI50 is 1.77 µM (inactive) in test [13]; 2.92 µM (inactive) in test [14]; 2.52 µM (inactive) in test [15]; 1.35 µM (inactive) in test [16]; 0.115 µM (active) in [17]; 3.49 µM (inactive) in test [18]. The figures for the GI50 in [19] and in test [20] were 1.57 µM (inactive) and 1.65 µM (inactive), respectively.

Consider `CCOCC(=O)N[C@H]1CCc2cc(OC)c(OC)c(OC)c2-c2ccc(OC)c(=O)cc21`, for which the GI50 is 0.0129 µM (active) in [1]; 0.0233 µM (active) in test [2]; < 0.0128 µM (active) in test [3]; 0.0179 µM (active) in [4]; 0.982 µM (active) in test [5]; 0.0132 µM (active) in test [6]. Also, the GI50 is 2.23 µM (inactive) in test [7]; 0.0239 µM (active) in test [8]; 0.0137 µM (active) in test [9]; 0.0241 µM (active) in test [10]; 0.0444 µM (active) in [11]; 0.0303 µM (active) in [12]. In addition, the GI50 was 0.0211 µM (active) in [13]; 0.0231 µM (active) in test [14]; 0.0778 µM (active) in test [15]; 0.0148 µM (active) in test [16]; 0.0377 µM (active) in [17]; 0.741 µM (active) in test [18]. Moreover, the figures for the GI50 in test [19] and in test [20] were 0.0762 µM (active) and 0.0232 µM (active), respectively.
